The values that follow come from article PMC8966651, “PKPD Modeling of the Inoculum Effect of Acinetobacter baumannii on Polymyxin B in vivo” (Frontiers in Pharmacology, 2022).

Counter-ions that a name gives are not always drawn. Bridge positions count the residues as written; N and C are the ends. Square brackets hold non-standard residues; d marks the D form. Peptide text beside a SMILES is read from it. * marks the point of attachment. X1 = CC[C@H](C)CCCCC(=O)*; Dab = NCC[C@H](N)C(=O)O

The assay relates to A. baumannii (CS01). In words: Neutropenic mouse thigh infection model, bacterial counts after PMB. It counts as in vivo, Acinetobacter baumannii. On the procedure: A clinical strain of A. baumannii (CS01), isolated from a patient with a meningitis (Seville, Spain) before treatment with CST, was used during this study ([López-Rojas et al., 2013]). Before each experiment, the strain was cultured in 5 ml of cation adjusted Muller-Hinton broth II (MHB) (Biomérieux, Marcy-l’Etoile, France) and incubated overnight at 37 ± 2°C with constant shaking (150–170 rpm). This overnight suspension was diluted 1:50 in MHB and was incubated with constant shaking at 35°C during 2 h until an OD600nm of 0.26 was achieved (Ultrospec10, Biochrom Ltd., Cambridge, United Kingdom), corresponding to a bacterial count of 10^8 CFU/ml in exponential growth phase. The bacterial suspension was centrifuged (3,000 rpm, 6 min), broth was removed and replaced by the same volume of sterile saline solution. This suspension was then diluted to obtain inocula of 10^7 and 10^6 CFU/ml. Samples of the inoculation solutions were serially diluted on saline, plated on Muller-Hinton agar plates (Biomérieux, Marcy-l’Etoile, France) and incubated overnight at 37°C.
Animal experiments were carried out according to the EC Directive 2010/63/EU. They were approved by the local ethics committee (COMETHEA) and registered by the French Ministry of Higher Education and Research (approval numbers: 2019022216097190 and 2017072415099072). Five-week-old male Swiss RjOrl mice (n = 296) weighing 34 ± 2 g (mean ± standard deviation [SD]) were obtained from Janvier Labs (Saint-Berthevin, France). All animals were acclimatized in ventilated racks in a temperature-regulated environment with a 12 h light-dark cycle, with free access to food and water for a minimum of 5 days before the beginning of the experiment. Neutropenia was induced by intraperitoneal administrations of cyclophosphamide at 150 and 100 mg/kg, 4 days and 1 day prior to experimental infection, respectively ([Landersdorfer et al., 2018]). Thigh infection was induced by intramuscular administration of 0.1 ml of a bacterial suspension of 10^6, 10^7 or 10^8 CFU/ml (corresponding to 10^5, 10^6 and 10^7 CFU/thigh, respectively), into one of the posterior thigh muscles. Thus, three groups of mice were distinguished according to the inoculum injected (n = 76, 146 and 74 for 10^5, 10^6 and 10^7 CFU/thigh, respectively) Each group was divided into two subgroups: treated (n = 48, 116 and 45 for 10^5, 10^6 and 10^7 CFU/thigh, respectively) and control mice (n = 28, 30 and 29 for 10^5, 10^6 and 10^7 CFU/thigh, respectively).
Two hours after bacterial inoculation, mice received either a single subcutaneous administration of PMB (1, 15 or 40 mg/kg for mice infected with 10^6 and 10^7 CFU/thigh, and 15 or 40 mg/kg for mice infected with 10^5 CFU/thigh), or a subcutaneous administration of saline solution (control group).
Mice (n = 240) were sacrificed at 6 different time points: just prior to the start of the therapy (0 h) and at 2, 4, 6, 8 and 24 h after PMB administration. A total of 3-6 mice were sacrificed at each time point. Thigh muscles were collected and homogenized with 1 ml of sterile saline solution using potters Elvehjem-type tissue grinders (Thermo Fischer Scientific, Illkirch-Graffenstaden, France). Homogenates were serially diluted in saline, plated on Muller-Hinton agar plates and incubated overnight at 37°C. Bacterial colonies were counted and expressed as log10 numbers of CFU/thigh. The lower limit of quantification (LOQ) was set to 800 CFU/ml corresponding to 2.9 log10 CFU/thigh.

For `CC[C@H](C)CCCCC(=O)N[C@@H](CCN)C(=O)N[C@H](C(=O)N[C@@H](CCN)C(=O)N[C@H]1CCNC(=O)[C@H]([C@@H](C)O)NC(=O)[C@H](CCN)NC(=O)[C@H](CCN)NC(=O)[C@H](CC(C)C)NC(=O)[C@@H](Cc2ccccc2)NC(=O)[C@H](CCN)NC1=O)[C@@H](C)O` [PMB, Polymyxin B sulfate] (X1-[Dab]T[Dab][Dab][Dab][dF]L[Dab][Dab]T; lactam 4-C), the “efficacy of PMB” value (15 mg/kg SC, two highest inocula (10^6 and 10^7 CFU/thigh)) is given as “moderate efficacy”. The bacterial load reduction is recorded as 2.6 ± 1.2 log10 CFU/thigh (24 h after 15 mg/kg PMB SC, inoculum 10^5 CFU/thigh); 2.5 ± 2.3 log10 CFU/thigh (24 h after 40 mg/kg PMB SC, inoculum 10^5 CFU/thigh); 3.5 ± 0.9 log10 CFU/thigh (24 h after 40 mg/kg PMB SC, inoculum 10^6 CFU/thigh); 2.1 ± 1.4 log10 CFU/thigh (24 h after 40 mg/kg PMB SC, inoculum 10^7 CFU/thigh). Further, the “bacterial counts compared with control group” value (PMB 1 mg/kg single SC dose, data not shown) is listed as “no differences in bacterial counts with the control group”.
